This test has as its system HIV-1 viral constructs Q60, K-60, and V-18. The test can be described thus: Cell spread assay (HIV-1 p24 accumulation in MT-4 T-lymphoid cells), mutant viral constructs. Format: cell-based. To be noted: one range stated for the three mutant viral constructs together; MT-4 cells, 4 days postinfection.

SMILES strings stand for the structures.

Method: Inhibition of the spread of HIV in cell culture was measured according to Nunberg et al., J. Virol. […] In this assay, MT-4 T-lymphoid cells were infected with HIV-1 (wild-type, unless otherwise indicated) by using a predetermined inoculum, and cultures were incubated for 24 h. At this time, ≦1% of the cells were positive by indirect immunofluorescence. Cells were then extensively washed and distributed into 96-well culture dishes. Serial twofold dilutions of inhibitor were added to the wells, and cultures were continued for 3 additional days. At 4 days postinfection, 100% of the cells in control cultures were infected. HIV-1 p24 accumulation was directly correlated with virus spread. The cell culture inhibitory concentration was defined as the inhibitor concentration in nanomoles/liter which reduced the spread of infection by at least 95%, or CIC95.

Consider `CC(C)(C)NC(=O)[C@@H]1CN(Cc2cccnc2)CCN1C[C@@H](O)C[C@@H](Cc1ccccc1)C(=O)N[C@H]1c2ccccc2C[C@H]1O` [indinavir, N-(2(R)-hydroxy-1(S)-indanyl)-2(R)-phenylmethyl-4-(S)-hydroxy-5-(1-(4-(3-pyridyl-methyl)-2(S)-N′-(t-butylcarboxamido)-piperazinyl))-pentaneamide], for which the “CIC95 against the viral constructs Q60, K-60, and V-18” value is “greater than 1000 nM”.

The record behind these values is patent US6589962B1, “Alpha-hydroxy-gamma-[[(carbocyclic-or heterocyclic-substituted)amino]carbonyl]alkanamide derivatives and uses thereof” (priority 1999, dated 2003).
